Assay results reported in ChEMBL document CHEMBL1201862, “PubChem BioAssay data set” (2004).
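Cultured in 96-well plates, cells were exposed to test compound for 48 hours across five concentrations. GI50 is the concentration that inhibits growth by half.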 Calls of active or inactive are those of the source. Rule as the data show it: active = GI50 up to about 1.1 µM and inactive = higher.

Tests used:
Test in all cases: inhibition of tumour cell growth, NCI panel, 48 h
786-0 = test system: 786-0
A498 = test system: A498
A549 = test system: A549
ACHN = test system: ACHN
CAKI-1 = test system: CAKI-1
CCRF-CEM = test system: CCRF-CEM
COLO 205 = test system: COLO 205
DU-145 = test system: DU-145
EKVX = test system: EKVX
HCC 2998 = test system: HCC 2998
HCT-116 = test system: HCT-116
HCT-15 = test system: HCT-15
HL-60 = test system: HL-60
HOP-62 = test system: HOP-62
HOP-92 = test system: HOP-92
HT-29 = test system: HT-29
Hs-578T = test system: Hs-578T
IGROV-1 = test system: IGROV-1
KM12 = test system: KM12
LOX IMVI = test system: LOX IMVI
M14 = test system: M14
MCF7 = test system: MCF7
MDA-MB-231 = test system: MDA-MB-231
MDA-MB-435 = test system: MDA-MB-435
MDA-N = test system: MDA-N
Malme-3M = test system: Malme-3M
NCI-H226 = test system: NCI-H226
NCI-H23 = test system: NCI-H23
NCI-H522 = test system: NCI-H522
NCI/ADR-RES = test system: NCI/ADR-RES
OVCAR-5 = test system: OVCAR-5
OVCAR-8 = test system: OVCAR-8
PC-3 = test system: PC-3
RPMI-8226 = test system: RPMI-8226
RXF 393 = test system: RXF 393
SF-268 = test system: SF-268
SF-295 = test system: SF-295
SF-539 = test system: SF-539
SK-MEL-28 = test system: SK-MEL-28
SK-MEL-2 = test system: SK-MEL-2
SK-MEL-5 = test system: SK-MEL-5
SK-OV-3 = test system: SK-OV-3
SN12C = test system: SN12C
SNB-19 = test system: SNB-19
SNB-75 = test system: SNB-75
SR = test system: SR
SW-620 = test system: SW-620
T47D = test system: T47D
TK-10 = test system: TK-10
U-251 = test system: U-251
UACC-257 = test system: UACC-257
UACC-62 = test system: UACC-62
UO-31 = test system: UO-31
K562 = test system: K562
MOLT-4 = test system: MOLT-4
NCI-H460 = test system: NCI-H460
OVCAR-3 = test system: OVCAR-3
OVCAR-4 = test system: OVCAR-4

N#Cc1c(N)oc(-c2ccc([N+](=O)[O-])cc2)c1C#N
GI50 (786-0): 30.1 µM (inactive)
GI50 (A498): 22.1 µM (inactive)
GI50 (A549): 23 µM (inactive)
GI50 (ACHN): 27.2 µM (inactive)
GI50 (CAKI-1): 24.3 µM (inactive)
GI50 (CCRF-CEM): 67.5 µM (inactive)
GI50 (COLO 205): 43.9 µM (inactive)
GI50 (DU-145): 23.6 µM (inactive)
GI50 (EKVX): 8.67 µM (inactive)
GI50 (HCC 2998): 32.7 µM (inactive)
GI50 (HCT-116): 29.2 µM (inactive)
GI50 (HCT-15): 23.4 µM
GI50 (HL-60): > 100 µM (inactive)
GI50 (HOP-62): 24.5 µM (inactive)
GI50 (HOP-92): 24.1 µM (inactive)
GI50 (HT-29): 34.4 µM (inactive)
GI50 (Hs-578T): 25.6 µM (inactive)
GI50 (IGROV-1): 18.5 µM (inactive)
GI50 (KM12): 72.6 µM (inactive)
GI50 (LOX IMVI): 44.2 µM (inactive)
GI50 (M14): 75.3 µM (inactive)
GI50 (MCF7): 35 µM (inactive)
GI50 (MDA-MB-231): 22 µM (inactive)
GI50 (MDA-MB-435): 47.4 µM (inactive)
GI50 (MDA-N): 30.3 µM (inactive)
GI50 (Malme-3M): 26.7 µM (inactive)
GI50 (NCI-H226): 17.9 µM (inactive)
GI50 (NCI-H23): 23.8 µM (inactive)
GI50 (NCI-H522): 21.4 µM (inactive)
GI50 (NCI/ADR-RES): 18.7 µM (inactive)
GI50 (OVCAR-5): 69.8 µM (inactive)
GI50 (OVCAR-8): 20.5 µM (inactive)
GI50 (PC-3): 22.5 µM (inactive)
GI50 (RPMI-8226): 33.3 µM (inactive)
GI50 (RXF 393): 28.6 µM (inactive)
GI50 (SF-268): 19.5 µM (inactive)
GI50 (SF-295): 19.2 µM (inactive)
GI50 (SF-539): 19.8 µM (inactive)
GI50 (SK-MEL-28): 44.2 µM (inactive)
GI50 (SK-MEL-2): 24.3 µM (inactive)
GI50 (SK-MEL-5): 17 µM (inactive)
GI50 (SK-OV-3): 45.2 µM (inactive)
GI50 (SN12C): 24.2 µM (inactive)
GI50 (SNB-19): 27.5 µM (inactive)
GI50 (SNB-75): 17.7 µM (inactive)
GI50 (SR): 54.2 µM (inactive)
GI50 (SW-620): 58.3 µM (inactive)
GI50 (T47D): 27.2 µM (inactive)
GI50 (TK-10): 28.4 µM (inactive)
GI50 (U-251): 39.4 µM (inactive)
GI50 (UACC-257): 25.2 µM (inactive)
GI50 (UACC-62): 39.5 µM (inactive)
GI50 (UO-31): 19.1 µM (inactive)

CCCCCCCCCCCCCCCCCC(=O)OCC(COC(=O)CCCN)OC(=O)CCCN (stereo not given)
GI50 (786-0): 17.3 µM (inactive)
GI50 (A549): 4.1 µM (inactive)
GI50 (ACHN): > 100 µM (inactive)
GI50 (CAKI-1): 18.7 µM (inactive)
GI50 (CCRF-CEM): 28.8 µM (inactive)
GI50 (COLO 205): 16.5 µM (inactive)
GI50 (DU-145): 19.6 µM (inactive)
GI50 (EKVX): 20.8 µM (inactive)
GI50 (HCC 2998): 18.5 µM (inactive)
GI50 (HCT-116): 19.5 µM (inactive)
GI50 (HCT-15): 23.7 µM
GI50 (HL-60): 54.2 µM (inactive)
GI50 (HOP-62): 17.4 µM (inactive)
GI50 (HOP-92): 13.4 µM (inactive)
GI50 (HT-29): 16.1 µM (inactive)
GI50 (Hs-578T): 19.2 µM (inactive)
GI50 (IGROV-1): 2.91 µM (inactive)
GI50 (K562): 35.6 µM (inactive)
GI50 (KM12): 15.5 µM (inactive)
GI50 (LOX IMVI): 18.5 µM (inactive)
GI50 (M14): 16.9 µM (inactive)
GI50 (MCF7): 24.4 µM (inactive)
GI50 (MDA-MB-231): 15 µM (inactive)
GI50 (MDA-MB-435): 17.2 µM (inactive)
GI50 (MDA-N): 19.9 µM (inactive)
GI50 (MOLT-4): 24.8 µM (inactive)
GI50 (Malme-3M): 23.2 µM (inactive)
GI50 (NCI-H226): 20.6 µM (inactive)
GI50 (NCI-H23): 16.4 µM (inactive)
GI50 (NCI-H460): 14.9 µM (inactive)
GI50 (NCI-H522): 21 µM (inactive)
GI50 (NCI/ADR-RES): 19.7 µM (inactive)
GI50 (OVCAR-3): 19.3 µM (inactive)
GI50 (OVCAR-4): 22 µM (inactive)
GI50 (OVCAR-5): 15.9 µM (inactive)
GI50 (OVCAR-8): 18.5 µM (inactive)
GI50 (PC-3): 17.1 µM (inactive)
GI50 (RXF 393): 15.1 µM (inactive)
GI50 (SF-268): 23.1 µM (inactive)
GI50 (SF-295): 19.4 µM (inactive)
GI50 (SF-539): 18.2 µM (inactive)
GI50 (SK-MEL-28): 19.9 µM (inactive)
GI50 (SK-OV-3): 18.3 µM (inactive)
GI50 (SN12C): 17.8 µM (inactive)
GI50 (SNB-19): 21.8 µM (inactive)
GI50 (SNB-75): > 100 µM (inactive)
GI50 (SR): 23.6 µM (inactive)
GI50 (SW-620): 19.6 µM (inactive)
GI50 (T47D): 17.4 µM (inactive)
GI50 (TK-10): 20.8 µM (inactive)
GI50 (U-251): 20.6 µM (inactive)
GI50 (UACC-257): 19.6 µM (inactive)
GI50 (UACC-62): 18.2 µM (inactive)
GI50 (UO-31): 1.96 µM (inactive)

O=C(/C=C/c1ccc(Cl)cc1)Oc1ccc(/C=C2\CCCCC2=O)cc1
GI50 (786-0): > 100 µM (inactive)
GI50 (A498): > 100 µM (inactive)
GI50 (A549): > 100 µM (inactive)
GI50 (ACHN): > 100 µM (inactive)
GI50 (CAKI-1): > 100 µM (inactive)
GI50 (CCRF-CEM): 55.5 µM (inactive)
GI50 (COLO 205): > 100 µM (inactive)
GI50 (DU-145): > 100 µM (inactive)
GI50 (EKVX): > 100 µM (inactive)
GI50 (HCC 2998): > 100 µM (inactive)
GI50 (HCT-116): > 100 µM (inactive)
GI50 (HCT-15): > 100 µM
GI50 (HL-60): 50.7 µM (inactive)
GI50 (HOP-62): > 100 µM (inactive)
GI50 (HOP-92): > 100 µM (inactive)
GI50 (HT-29): 23 µM (inactive)
GI50 (Hs-578T): > 100 µM (inactive)
GI50 (IGROV-1): > 100 µM (inactive)
GI50 (KM12): > 100 µM (inactive)
GI50 (LOX IMVI): > 100 µM (inactive)
GI50 (M14): > 100 µM (inactive)
GI50 (MCF7): > 100 µM (inactive)
GI50 (MDA-MB-231): > 100 µM (inactive)
GI50 (MDA-MB-435): > 100 µM (inactive)
GI50 (MDA-N): > 100 µM (inactive)
GI50 (MOLT-4): 28.8 µM (inactive)
GI50 (Malme-3M): > 100 µM (inactive)
GI50 (NCI-H23): > 100 µM (inactive)
GI50 (NCI-H460): > 100 µM (inactive)
GI50 (NCI-H522): 50.8 µM (inactive)
GI50 (OVCAR-3): > 100 µM (inactive)
GI50 (OVCAR-4): > 100 µM (inactive)
GI50 (OVCAR-5): > 100 µM (inactive)
GI50 (OVCAR-8): > 100 µM (inactive)
GI50 (PC-3): > 100 µM (inactive)
GI50 (RPMI-8226): > 100 µM (inactive)
GI50 (SF-268): 69.7 µM (inactive)
GI50 (SF-295): > 100 µM (inactive)
GI50 (SF-539): > 100 µM (inactive)
GI50 (SK-MEL-28): > 100 µM (inactive)
GI50 (SK-MEL-2): > 100 µM (inactive)
GI50 (SK-MEL-5): > 100 µM (inactive)
GI50 (SN12C): > 100 µM (inactive)
GI50 (SNB-19): > 10 µM (inactive)
GI50 (SNB-75): > 100 µM (inactive)
GI50 (SR): > 100 µM (inactive)
GI50 (SW-620): > 100 µM (inactive)
GI50 (T47D): > 100 µM (inactive)
GI50 (TK-10): > 100 µM (inactive)
GI50 (U-251): > 100 µM (inactive)
GI50 (UACC-257): > 100 µM (inactive)
GI50 (UACC-62): > 100 µM (inactive)
GI50 (UO-31): > 100 µM (inactive)
